Assay results from patent US6444613B1, “Defoliant” (Hoechst Schering AgrEvo GmbH, priority 1999, dated 2002).

System: cotton plants
Experiment: Action as defoliant: leaf abscission of cotton plants after spray application
Type: in vivo

`COC(=O)CSc1cc(/N=c2\sc(=O)n3n2CCCC3)c(F)cc1Cl` [Fluthiacet-methyl, fluthiacet-methyl] was tested, and the “Effect in % (leaf abscission)” value (Table 1 fluthiacet-methyl trial, dose 0.,5 g/ha, 4 days) was 5%, the “Effect in % (leaf abscission)” value (Table 1 fluthiacet-methyl trial, dose 0.,5 g/ha, 5 days) was 14% and the “Effect in % (leaf abscission)” value (Table 1 fluthiacet-methyl trial, dose 0.25 g/ha, 4 days) was 0%. The “Effect in % (leaf abscission)” value (Table 1 fluthiacet-methyl trial, dose 0.25 g/ha, 5 days) was 0%.

In the case of `CCOC(=O)C(Cl)Cc1cc(-n2nc(C)n(C(F)F)c2=O)c(F)cc1Cl` (centres unmarked) [Carfentrazone-ethyl, carfentrazone-ethyl], the “Effect in % (leaf abscission)” value (Table 3.1 carfentrazone-ethyl trial, dose 25 g/ha, 10 days) is reported as 0%, the “Effect in % (leaf abscission)” value (Table 3.1 carfentrazone-ethyl trial, dose 25 g/ha, 20 days) is reported as 5% and the “Effect in % (leaf abscission)” value (Table 3.2 carfentrazone-ethyl trial, dose 1.5 g/ha, 6 days) is reported as 29%. For the same compound, the “Effect in % (leaf abscission)” value (Table 3.2 carfentrazone-ethyl trial, dose 1.5 g/ha, 9 days) was 29%.

In the case of `O=C(Nc1ccccc1)Nc1cnns1` [Thidiazuron, thidiazuron], the “Effect in % (leaf abscission)” value (Table 1 fluthiacet-methyl trial, dose 25 g/ha, 4 days, cotton 8-10 leaf stage) is reported as 5%, the “Effect in % (leaf abscission)” value (Table 1 fluthiacet-methyl trial, dose 25 g/ha, 5 days, cotton 8-10 leaf stage) is reported as 24% and the “Effect in % (leaf abscission)” value (Table 2 pyraflufen-ethyl trial, dose 25 g/ha, 3 days) is reported as 4%. The “Effect in % (leaf abscission)” value (Table 2 pyraflufen-ethyl trial, dose 25 g/ha, 5 days) was 17%, the “Effect in % (leaf abscission)” value (Table 3.1 carfentrazone-ethyl trial, dose 80 g/ha, 10 days) was 0% and the “Effect in % (leaf abscission)” value (Table 3.1 carfentrazone-ethyl trial, dose 80 g/ha, 20 days) was 8%. For the same compound, the “Effect in % (leaf abscission)” value (Table 3.2 carfentrazone-ethyl trial, dose 25 g/ha, 6 days) was 29% and the “Effect in % (leaf abscission)” value (Table 3.2 carfentrazone-ethyl trial, dose 25 g/ha, 9 days) was 52%.

pyraflufen-ethyl was tested, and the “Effect in % (leaf abscission)” value (Table 2 pyraflufen-ethyl trial, dose 1 g/ha, 3 days) was 0%, the “Effect in % (leaf abscission)” value (Table 2 pyraflufen-ethyl trial, dose 1 g/ha, 5 days) was 0% and the “Effect in % (leaf abscission)” value (Table 2 pyraflufen-ethyl trial, dose 2 g/ha, 3 days) was 0%. The “Effect in % (leaf abscission)” value (Table 2 pyraflufen-ethyl trial, dose 2 g/ha, 5 days) was 0%.
